Read-outs that look alike come from different tables or passages of the source.

Assay [1] has as its target hMC4R (Homo sapiens (Human), UniProt P32245). Description: In vitro binding affinity assay using hMC4R (radioligand competition binding, [125I]-(Nle4, D-Phe7)-α-MSH). The note with it: geometric mean. The procedure: Example AA. In Vitro Binding Affinity Assay Using hMC4R
The binding affinity of test compounds at the […] (hMC4R) was assessed using a radioligand competition binding assay. […] Cell membranes were bulked and frozen until the assay was performed.
Compounds were solubilized in 100% dimethyl sulfoxide (DMSO) to a concentration of 30 mM. A 10-point intermediate dilution series using half log dilutions was created in 100% DMSO with a top concentration of 0.03 mM. […] The final compound range in the assay was 300 nM to 0.01 nM with a final DMSO concentration of 1%. […] The exact concentration of radioligand used for each experiment was determined by liquid scintillation counting and adjusted if necessary.
Frozen hMC4R cell membranes were thawed and Dounce homogenized. Homogenates were resuspended in assay buffer to a concentration of 2 μg per well. […] The plates were incubated for 2 hours at room temperature.
The raw data (expressed as counts per minute) were analyzed using ActivityBase (IDBS Data Management Software). […] Equilibrium dissociation constant for inhibitor of ligand and receptor interaction (Ki) values were then calculated from the IC50 values using the Cheng-Prusoff equation: Ki=IC50/(1+([L]/Kd)), where [L] is the concentration of the radioligand used in the experiment and Kd is the affinity of the radioligand (determined in separate saturation experiments).

For assay [2], the target named is human Melanocortin-4 receptor (MC4R) (Homo sapiens (Human), UniProt P32245). Description: Functional in vitro MC4R antagonist potency assay (cAMP HTRF in CHO cells). In kind it is cell-based. The note with it: read-out: Kb (nM) Antagonist geometric mean. The method, boiled down:
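CHO cells stably expressing human MC4R were preincubated 30 min at 37 °C with compound ([…], 0.1% DMSO), then stimulated 30 min with EC80 αMSH (200 nM). Intracellular cAMP quantified by HTRF competitive immunoassay and normalized to agonist-stimulated and vehicle-only wells.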
(Time-resolved FRET reads energy transfer from a long-lived donor to a nearby acceptor.)

Setting [3] is: read-out: Ki (nM) geometric mean.

hMC4R, sequence (P32245 whole entry): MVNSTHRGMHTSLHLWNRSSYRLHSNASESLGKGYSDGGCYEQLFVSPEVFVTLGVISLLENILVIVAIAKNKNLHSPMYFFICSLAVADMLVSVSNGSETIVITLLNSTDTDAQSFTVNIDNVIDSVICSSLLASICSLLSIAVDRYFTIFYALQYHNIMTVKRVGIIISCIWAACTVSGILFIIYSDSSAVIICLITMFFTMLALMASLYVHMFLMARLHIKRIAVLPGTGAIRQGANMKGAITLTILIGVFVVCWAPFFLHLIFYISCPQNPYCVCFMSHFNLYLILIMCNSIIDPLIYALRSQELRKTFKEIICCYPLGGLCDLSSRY
human Melanocortin-4 receptor (MC4R), sequence (P32245 whole entry): as above

By Ki is commonly meant a measure of affinity in units of concentration, obtained from inhibition or displacement. Usually Kb stands for the affinity of an antagonist, worked out from how it opposes an agonist. For `COc1cc([C@@H](C)C(=O)N2CCC3(CCc4cc(-c5nnn(C)n5)c(C)nc4N3)C2)c(Cl)cn1` (single isomer, unassigned) [Example 1], the Ki in assay [1] (setting [3]) was 0.21 nM. The Kb in assay [2] is 0.049 nM.
For the molecule `COc1cc([C@@H](C)C(=O)N2CCC3(CCc4cc(-c5nnn(C)n5)c(C)nc4N3)C2)c(Cl)cn1` (single isomer, unassigned) [Example 2], the Ki in assay [1] (setting [3]) was found to be 4.5 nM. Further, in assay [2], the Kb was found to be 1.2 nM.
For `Cc1nc2c(cc1-c1ncccn1)CC[C@@]1(CCN(C(=O)C(C)c3ccc(OC(F)F)nc3)C1)N2` (single isomer, unassigned) [Example 6], in that order: 0.44 nM and 8.5 nM.
For the molecule `Cc1nc2c(cc1-c1ncccn1)CC[C@@]1(CCN(C(=O)C(C)c3ccc(C(F)(F)F)cc3)C1)N2` (single isomer, unassigned) [Example 7], the Ki in assay [1] (setting [3]) is 0.62 nM. Further, the Kb in assay [2] was 8.1 nM.
As for `Cc1nc2c(cc1-c1ncccn1)CC[C@@]1(CCN(C(=O)C(C)c3ccc(C(F)(F)F)cc3)C1)N2` (single isomer, unassigned) [Example 8], the Ki in assay [1] (setting [3]) was found to be 76 nM. In addition, the Kb in assay [2] was > 95 nM.
With `COc1cc([C@@H](C)C(=O)N2CCC3(CCc4cc(-c5cnn(C)c5)c(C)nc4N3)C2)c(F)cn1` (single isomer, unassigned) [Example 16], in assay [1] (setting [3]), the inhibitory constant (Ki) came to 0.36 nM. Moreover, in assay [2], the antagonist dissociation constant (Kb) was found to be 0.88 nM.
Regarding `COc1cc([C@@H](C)C(=O)N2CCC3(CCc4cc(-c5cnn(C)c5)c(C)nc4N3)C2)c(F)cn1` (single isomer, unassigned) [Example 17], the Ki in assay [1] (setting [3]) worked out at 69 nM. For the same molecule, the Kb in assay [2] is > 64 nM.
As to `COc1cc([C@@H](C)C(=O)N2CC[C@@]3(CCc4ccc(C)nc4N3)C2)nc(C)n1` (single isomer, unassigned) [Example 24, 2-(6-methoxy-2-methylpyrimidin-4-yl)-1-(7-methyl-3,4-dihydro-1H-spiro[1,8-naphthyridine-2,3′-pyrrolidin]-1′-yl)propan-1-one], the Ki in assay [1] (setting [3]) was 77 nM. In addition, the Kb in assay [2] was > 97 nM.
For the molecule `COc1cc([C@@H](C)C(=O)N2CC[C@@]3(CCc4ccc(C)nc4N3)C2)c(F)cn1` (single isomer, unassigned) [Example 99], in assay [1] (setting [3]), the Ki was found to be 81 nM.
`COc1cc([C@@H](C)C(=O)N2CC[C@@]3(CCc4ccc(C)nc4N3)C2)c(Cl)cn1` (single isomer, unassigned) [Example 101]: the Ki in assay [1] (setting [3]) was found to be 110 nM.
Consider `COc1cc([C@@H](C)C(=O)N2CC[C@@]3(CCc4cc(Cl)c(C)nc4N3)C2)c(F)cn1` (single isomer, unassigned) [Example 103], for which the Ki in assay [1] (read-out: Ki (nM) geometric) was > 250 nM.
With `Cc1nc2c(cc1-c1nnn(C)n1)CC[C@@]1(CCN(C(=O)[C@H](C)c3ccc(C(F)(F)F)cc3)C1)N2` (single isomer, unassigned) [Example 110], the Ki in assay [1] (read-out: Ki (nM) geometric) stood at 29 nM.
In the case of `COc1cc([C@@H](C)C(=O)N2CC[C@@]3(CCc4cc(-c5nnn(C)n5)c(C)nc4N3)C2)ccn1` (single isomer, unassigned) [Example 126], in assay [1] (read-out: Ki (nM) geometric), the Ki worked out at 140 nM.
Still for that read-out and setting: then `COc1ncc(F)c([C@@H](C)C(=O)N2CC[C@@]3(CCc4cc(-c5nc6ccccn6n5)c(C)nc4N3)C2)n1` (single isomer, unassigned) [Example 133], with 63 nM; and `COc1cc([C@@H](C)C(=O)N2CC[C@@]3(CCc4cc(-c5ncccn5)c(C)nc4N3)C2)cc(OC(F)F)n1` (single isomer, unassigned) [Example 193], with 28 nM; and `COc1cc([C@@H](C)C(=O)N2CC[C@@]3(CCc4cc(-c5nc(N(C)C)cc(C(F)(F)F)n5)c(C)nc4N3)C2)c(F)cn1` [Example 185, (2R)-1-{(2S)-6-[4-(dimethylamino)-6-(trifluoromethyl)pyrimidin-2-yl]-7-methyl-3,4-dihydro-1H-spiro[1,8-naphthyridine-2,3′-pyrrolidin]-1′-yl}-2-(5-fluoro-2-methoxypyridin-4-yl)propan-1-one], with 5.5 nM.

These data come from patent US12187727B2, “Methods for antagonizing a melanocortin 4 receptor” (Pfizer Inc., priority 2020, dated 2025).
